The values below come from patent US20240400553A1, “AMINE BASED MATRIPTASE 2 INHIBITORS AND USES THEREOF” (Disc Medicine, Inc., priority 2023, published 2024).

This assay deals with T1, Human Recombinant Matriptase 2 (Homo sapiens, UniProt Q8IU80).
T1 construct: made in house
T1 sequence (Q8IU80 1-811): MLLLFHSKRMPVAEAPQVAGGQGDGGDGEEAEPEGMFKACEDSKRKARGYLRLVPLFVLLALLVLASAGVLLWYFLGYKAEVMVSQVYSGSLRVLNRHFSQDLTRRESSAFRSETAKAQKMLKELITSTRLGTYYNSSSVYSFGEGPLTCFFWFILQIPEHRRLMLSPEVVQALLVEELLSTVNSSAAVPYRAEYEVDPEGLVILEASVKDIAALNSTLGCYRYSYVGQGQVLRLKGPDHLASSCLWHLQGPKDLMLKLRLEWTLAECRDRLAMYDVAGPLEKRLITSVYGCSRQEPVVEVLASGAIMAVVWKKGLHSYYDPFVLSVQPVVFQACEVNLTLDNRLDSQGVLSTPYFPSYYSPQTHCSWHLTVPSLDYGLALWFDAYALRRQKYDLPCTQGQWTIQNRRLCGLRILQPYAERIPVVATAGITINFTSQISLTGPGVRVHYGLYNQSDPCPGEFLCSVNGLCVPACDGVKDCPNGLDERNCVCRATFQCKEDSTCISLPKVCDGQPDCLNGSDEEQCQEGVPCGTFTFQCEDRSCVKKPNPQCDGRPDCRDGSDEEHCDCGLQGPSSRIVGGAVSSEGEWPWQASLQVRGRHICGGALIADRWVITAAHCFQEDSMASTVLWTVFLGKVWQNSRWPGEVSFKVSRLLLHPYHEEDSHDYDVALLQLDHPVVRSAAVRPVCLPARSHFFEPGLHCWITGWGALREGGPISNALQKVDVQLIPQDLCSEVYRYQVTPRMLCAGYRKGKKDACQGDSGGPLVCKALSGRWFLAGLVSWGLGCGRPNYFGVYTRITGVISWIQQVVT
In words: Matriptase 2 inhibition, fluorescence based assay (Method I). It counts as biochemical. To be noted: Table A; Ki of Matriptase-2 given as class symbols; read-out: Mat-2 Ki. An outline of the steps:
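Fluorogenic readout (Ex 360/Em 480 nm) taken 60 min after adding 62 μM Boc-Gln-Ala-Arg-AMC, following 30-min enzyme–compound preincubation at 25 °C. Conditions: 3.5 nM in-house enzyme, pH 7.5 Tris/NaCl/gelatin buffer, 1% DMSO; percent inhibition versus concentration fitted by variable-slope sigmoidal regression.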
One may read the Ki as a measure of affinity in units of concentration, obtained from inhibition or displacement. For `NCc1ccc2cc(C(=O)O)n(Cc3cc(NC(=O)N4CC5CC(C5)C4)cc4ccccc34)c2n1` [Compound 308, 6-(aminomethyl)-1-{[3-({3-azabicyclo[3.1.1]-heptane-3-carbonyl}-amino)naphthalen-1-yl]-methyl}-1H-pyrrolo[2,3-b]pyridine-2-carboxylic acid], the Ki lay in the range of 500 to 3000 nM.

As for `CN1CCC[C@H]1COC(=O)Nc1cc(Cn2c(C(=O)O)cc3ccc(CN)nc32)c2ccccc2c1` [Compound 334, 6-(aminomethyl)-1-({3-[({[(2S)-1-methylpyr-rolidin-2-yl]methoxy}-carbonyl)amino]naph-thalen-1-yl}methyl)-1H-pyrrolo[2,3-b]pyr-idine-2-carboxylic acid], the Ki was 100 to 500 nM.

As for `CN1CCC[C@@H]1COC(=O)Nc1cc(Cn2c(C(=O)O)cc3ccc(CN)nc32)c2ccccc2c1` [Compound 336, 6-(aminomethyl)-1-({3-[({[(2R)-1-methylpyr-rolidin-2-yl]methoxy}-carbonyl)amino]naph-thalen-1-yl}methyl)-1H-pyrrolo[2,3-b]pyr-idine-2-carboxylic acid], the inhibition constant (Ki) lay within 100 to 500 nM.

Regarding `CC(C)N(CCOC(=O)Nc1cc(Cn2c(C(=O)O)cc3ccc(CN)nc32)c2ccccc2c1)C(C)C` [Compound 338, 6-(aminomethyl)-1-({3-[({2-[bis(propan-2-yl)-amino]ethoxy}carbonyl)-amino]naphthalen-1-yl}-methyl)-1H-pyrrolo[2,3-b]pyridine-2-carboxylic acid], the Ki is 500 to 3000 nM.

In the case of `CN(C)C(=O)N1CC[C@H](OC(=O)Nc2cc(Cn3c(C(=O)O)cc4ccc(CN)nc43)c3ccccc3c2)C1` [Compound 341], the inhibition constant (Ki) was in the range of 500 to 3000 nM.

With `COCCN1CCN(C(=O)Nc2cc(Cn3c(C(N)=O)cc4ccc(CN)nc43)c3ccccc3c2)CC1` [Compound 344, 6-(aminomethyl)-1-((3-(4-(2-methoxyethyl)piperazine-1-carboxamido)naphthalen-1-yl)methyl)-1H-pyrrolo[2,3-b]pyridine-2-carboxamide], the inhibition constant (Ki) was in the range of 100 to 500 nM.

Turning to `CN1CCC(c2nnc(-c3cc4ccc(CN)nc4n3Cc3cc(NS(=O)(=O)Cc4ccccc4)cc4ccccc34)o2)CC1` [Compound 345, N-(4-((6-(aminomethyl)-2-(5-(1-methylpiperidin-4-yl)-1,3,4-oxadiazol-2-yl)-1H-pyrrolo[2,3-b]pyridin-1-yl)methyl)naphthalen-2-yl)-1-phenylmethanesulfonamide], the Ki is at most 100 nM.

With `CN1CCC(Cc2nnc(-c3cc4ccc(CN)nc4n3Cc3cc(NS(=O)(=O)Cc4ccccc4)cc4ccccc34)o2)CC1` [Compound 346, N-(4-{[6-(aminomethyl)-2-{5-[(1-methylpiperidin-4-yl)methyl]-1,3,4-oxa-diazol-2-yl}-1H-pyrrolo-[2,3-b]pyridin-1-yl]meth-yl}naphthalen-2-yl)-1-phenylmethanesulfon-amide], the Ki is 100 to 500 nM.

Turning to `CN(C)Cc1nnc(-c2cc3ccc(CN)nc3n2Cc2cc(NS(=O)(=O)Cc3ccccc3)cc3ccccc23)o1` [Compound 347, N-(4-{[6-(aminomethyl)-2-{5-[(dimethylamino)-methyl]-1,3,4-oxadiazol-2-yl}-1H-pyrrolo[2,3-b]pyridin-1-yl]methyl}-naphthalen-2-yl)-1-phen-ylmethanesulfonamide], the Ki is 100 to 500 nM.

On to `NCc1ccc2cc(-c3nnc(N)o3)n(Cc3cc(NS(=O)(=O)Cc4ccccc4)cc4ccccc34)c2n1` [Compound 348, N-(4-{[2-(5-amino-1,3,4-oxadiazol-2-yl)-6-(amino-methyl)-1H-pyrrolo[2,3-b]pyridin-1-yl]methyl}-naphthalen-2-yl)-1-phen-ylmethanesulfonamide], for which the Ki was at most 100 nM.

Turning to `CN(C)CC(=O)Nc1nnc(-c2cc3ccc(CN)nc3n2Cc2cc(NS(=O)(=O)Cc3ccccc3)cc3ccccc23)o1` [Compound 349], the Ki was at most 100 nM.

For `NCc1ccc2cc(-c3cnn[nH]3)n(Cc3cc(NS(=O)(=O)Cc4ccccc4)cc4ccccc34)c2n1` [Compound 350, N-(4-((6-(aminomethyl)-2-(1H-1,2,3-triazol-5-yl)-1H-pyrrolo[2,3-b]pyridin-1-yl)methyl)naphthalen-2-yl)-1-phenylmethanesulfonamide], the Ki was 100 to 500 nM.

As for `NCc1ccc2cc(-c3ccn[nH]3)n(Cc3cc(NS(=O)(=O)Cc4ccccc4)cc4ccccc34)c2n1` [Compound 351], the inhibition constant (Ki) was at most 100 nM.

For `NCc1ccc2cc(-c3ncn[nH]3)n(Cc3cc(NS(=O)(=O)Cc4ccccc4)cc4ccccc34)c2n1` [Compound 352], the inhibition constant Ki was at most 100 nM.

With `NCc1ccc2cc(-c3noc(=O)[nH]3)n(Cc3cc(NS(=O)(=O)Cc4ccccc4)cc4ccccc34)c2n1` [Compound 353, N-(4-((6-(aminomethyl)-2-(5-hydroxy-1,2,4-oxadiazol-3-yl)-1H-pyrrolo[2,3-b]pyridin-1-yl)methyl)naphthalen-2-yl)-1-phenylmethanesulfonamide], the Ki is 100 to 500 nM.

Turning to `CCOC(=O)c1cc2ccc(CNC(=O)c3ccccc3COC(C)=O)nc2n1Cc1cc(NS(=O)(=O)Cc2ccccc2)cc2ccccc12` [Compound 358, ethyl 6-[({2-[(acetyl-oxy)methyl]phenyl}-formamido)methyl]-1-{[3-(phenylmethane-sulfonamido)naphthalen-1-yl]methyl}-1H-pyr-rolo[2,3-b]pyridine-2-carboxylate], the Ki lay within 500 to 3000 nM.

Turning to `Cc1oc(=O)oc1COC(=O)NCc1ccc2cc(C(=O)O)n(Cc3cc(NS(=O)(=O)Cc4ccccc4)cc4ccccc34)c2n1` [Compound 359, 6-(((((5-methyl-2-oxo-1,3-dioxol-4-yl)methoxy)carbonyl)amino)methyl)-1-((3-((phenylmethyl)sulfonamido)naphthalen-1-yl)methyl)-1H-pyrrolo[2,3-b]pyridine-2-carboxylic acid], the Ki is 100 to 500 nM.

`NCc1ccc2cc(C(=O)O)n(Cc3cc(NS(=O)(=O)Cc4ccccc4)cc4cccc(O)c34)c2n1` [Compound 360, 6-(aminomethyl)-1-((8-hydroxy-3-((phenylmethyl)sulfonamido)naphthalen-1-yl)methyl)-1H-pyrrolo[2,3-b]pyridine-2-carboxylic acid]: the Ki is 100 to 500 nM.

Consider `COc1ccc2c(Cn3c(C(=O)O)cc4ccc(CN)nc43)cc(NS(=O)(=O)Cc3ccccc3)cc2c1` [Compound 361], for which the Ki lay in the range of 100 to 500 nM.

Take `NCc1ccc2cc(CO)n(Cc3cc(NS(=O)(=O)CC4CCNCC4)cc4ccccc34)c2n1` [Compound 362]: the Ki lay in the range of 100 to 500 nM.

For `NCc1ccc2cc(CO)n(Cc3cc(NS(=O)(=O)Cc4ccccc4)cc4ccccc34)c2n1` [Compound 365, N-(4-((6-(aminomethyl)-2-(hydroxymethyl)-1H-pyrrolo[2,3-b]pyridin-1-yl)methyl)naphthalen-2-yl)-1-phenylmethanesulfonamide], the inhibition constant (Ki) was 500 to 3000 nM.

In the case of `NCc1ccc2cc(-c3nnn[nH]3)n(Cc3cc(NS(=O)(=O)Cc4ccccc4)cc4ccccc34)c2n1` [Compound 366, N-(4-((6-(aminomethyl)-2-(1H-tetrazol-5-yl)-1H-pyrrolo[2,3-b]pyridin-1-yl)methyl)naphthalen-2-yl)-1-phenylmethanesulfonamide], the inhibition constant (Ki) was at most 100 nM.

As to `NCc1ccc2cc(C(=O)O)n(Cc3cc(NS(=O)(=O)Cc4ccccc4)cc4ccccc34)c2c1` [Compound 370, 6-(aminomethyl)-1-((3-((phenylmethyl)sulfonamido)naphthalen-1-yl)methyl)-1H-indole-2-carboxylic acid], the Ki was at most 100 nM.

With `CN1CCC(OC(=O)c2cc3ccc(CN)cc3n2Cc2cc(NS(=O)(=O)Cc3ccccc3)cc3ccccc23)CC1` [Compound 371, 1-methylpiperidin-4-yl 6-(aminomethyl)-1-((3-((phenylmethyl)sulfonamido)naphthalen-1-yl)methyl)-1H-indole-2-carboxylate], the inhibitory constant (Ki) is at most 100 nM.

On to `NCc1ccc2cc(C(=O)Nc3nnn[nH]3)n(Cc3cc(NS(=O)(=O)Cc4ccccc4)cc4ccccc34)c2c1` [Compound 372, 6-(aminomethyl)-1-((3-((phenylmethyl)sulfonamido)naphthalen-1-yl)methyl)-N-(1H-tetrazol-5-yl)-1H-indole-2-carboxamide], for which the Ki is 100 to 500 nM.

In the case of `Cc1cccc(C)c1CS(=O)(=O)Nc1cc(Cn2c(C(=O)NCCC3CCN(C)CC3)cc3ccc(CN)cc32)c2ccccc2c1` [Compound 373, 6-(aminomethyl)-1-({3-[(2,6-dimethylphenyl)-methanesulfonamido]-naphthalen-1-yl}methyl)-N-[2-(1-methylpiperidin-4-yl)ethyl]-1H-indole-2-carboxamide], the inhibition constant (Ki) is at most 100 nM.
